# Structures can show the parent of a compound that is named as a salt.
# Assays:
# [1] = system: primary human neutrophils; assay: Neutrophil transmigration to chemoattractant or sample in 96-well co-culture, counted by flow cytometry; format: cell-based; conditions: for number of counted transmigrated neutrophils versus chemoattractant dose: 3 healthy donors, 16 hours, two-way ANOVA p<0.0001
# HUVEC = assay: Tolerance of HUVEC to puromycin in routine culture; format: cell-based, human; conditions: long time periods; unpublished observation
# Excerpt: HUVEC maintenance in T-75 flasks. Primary Human Umbilical Vein Endothelial Cells were employed from ATCC (ATCC® PCS-100-013™) and expanded according to manufacturer instructions in Vascular Cell Basal Medium (ATCC® PCS-100-030™) supplemented with Endothelial Cell Growth Kit-VEGF (ATCC® PCS-100-041™) with added Penicillin-Streptomycin (Gibco™ 15140148) diluted 1:100 v:v. HUVECs were transduced to constitutively express RFP. […] Cells were passaged at 60-80% confluence according to manufacturer instructions, counted with Nexcelcom Cellometer Auto T4 Bright Field Cell Counter (Nexcelcom Bioscience) using Trypan Blue viability stain, and used below the passage 10 since expanding from ATCC.
# Lentiviral transduction. H441 cells and HUVECs were transduced with lentivirus to constitutively express GFP and RFP, respectively. H441 cells were seeded in T-75 flasks at 0.75e6 cells/75 cm^2 and allowed to attach overnight. Then H441 cells were inoculated with GFP gene-bearing lentivirus with puromycin resistance (Brand, product #). Lentivirus (8 TU/cell) was suspended in H441 routine culture media with the addition of transfection reagent polybrene ([…]). The cells were inoculated overnight and then allowed to recover in routine cell culture media for 72 hours with media changes every 48 hours. […]
# [2] = Sodium fluorescein permeability across epithelial-endothelial co-culture; format: in vitro ADME; conditions: human
# [3] = system: endothelium of H441-HUVEC co-culture; assay: IL-8 on the endothelial side of the H441/HUVEC co-culture (ELISA); format: cell-based, human; conditions: 24-hour exposure on the epithelial side
# Protocol: Then, IL-8 produced on the endothelial side was measured by ELISA (R&D Systems). […] Statistics were performed in GraphPad Prism 9.
# Cytokine quantitation. Cell culture supernatants were collected at specified intervals. IL-6 and IL-8 were quantified with ELISA assays according to manufacturer instructions (Human IL-6 DuoSet ELISA, R&D Systems DY206-05; Human IL-8/CXCL8 DuoSet ELISA, R&D Systems, DY208-05; DuoSet ELISA Ancillary Reagent Kit 2, R&D Systems; DY008.
# [4] = system: endothelium of H441-HUVEC co-culture; assay: Endothelial von Willebrand factor release after epithelial exposure; format: cell-based, human; conditions: epithelial side exposed for 10 minutes
# Protocol: Staining and imaging. All stains used reagents from ThermoFisher's Image-iT™ Fixation/Permeabilization Kit (R37602) for washing, fixing, blocking, and permeabilization. For all stains, inserts were cut out and fixed on glass slides for 10 minutes at 37° C. For stains requiring permeabilization, the inserts were incubated with 0.5% Triton X (ImageIT kit) for 5 minutes at 37° C. All inserts were blocked for 1 hour at 37° C., counterstained with DAPI (1:1000 in PBS for 5 minutes) and mounted between two coverslips with ProLong™ Diamond Antifade Mountant (Invitrogen). F-actin. After fixation, permeabilization, and blocking, inserts were incubated for 1 hour at 37° C. in Alexa Fluor™ 647 Phalloidin (Invitrogen) diluted 1:20 from stock solution in 1% BSA (Image-iT™). ZO-1/e-cadherin co-stain. After fixation, permeabilization, and blocking, the primary antibodies (ZO-1 Rabbit anti-human polyclonal antibody, ThermoFisher 61-7300, 1:200; e-cadherin Mouse anti-human monoclonal antibody, ThermoFisher 13-1700, 1:2000) were suspended together in 1% BSA (Image-It Kit) and co-incubated with the inserts for 2 hours at 37° C. The secondary antibodies (Goat anti-Rabbit IgG, Alexa Fluor 405, Abcam ab 175665, 1:200; Goat anti-mouse IgG, Alexa Fluor 647, ThermoFisher A32728, 1:500) were suspended in 1% BSA and incubated with the filters for 2 hours at 37° C. […]
compound,measurement,setting,value
"CCCCC/C=C\C[C@@H](O)/C=C/C=C/C=C\[C@@H](O)CCCC(=O)O [LTB4, leukotriene B4]",number of counted transmigrated neutrophils versus chemoattractant dose,[1],effect of chemoattractant dose
COc1ccc(C[C@H](N)C(=O)N[C@H]2[C@@H](O)[C@H](n3cnc4c(N(C)C)ncnc43)O[C@@H]2CO)cc1 [puromycin],tolerance by HUVEC in routine culture medium,HUVEC,did not tolerate it well for long time periods
"O=C1OC2(c3ccc(O)cc3Oc3cc(O)ccc32)c2ccccc21 [NaFL, Fluorescein sodium salt]","Papp at 2 h, 30 µM","[2]; H441/HUVEC co-culture at ALI, S.D. 1.63e-5 cm/s, 95% CI 1.53e-6-1.25e-5 cm/s",7.04 ×10⁻⁶ cm/s
same,"Papp at 3 h, 30 µM","[2]; control, no exposure, at ALI, over a 3-hour period, n=4, read-out: permeability of the control bilayer co-culture",7.04 ×10⁻⁶ cm/s
"IL-8: recombinant human protein IL-8 (HEK-expressed, activity tested), chemoattractant",number of counted transmigrated neutrophils versus chemoattractant dose,[1],effect of chemoattractant dose
same,neutrophil transmigration numbers versus concentration,[1]; 18 hour transmigration time,increase
polyinosinic:polycytidylic acid [poly(I:C)],endothelial release of IL-8,[3],weakly dose-dependent
same,endothelial von Willebrand factor (VWF) exocytosis,[4],immediately exocytosed von Willebrand factor
